In PubChem BioAssay (NCI):
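How tested: cells in 96-well plates exposed to compound for 48 hours at five concentrations. Definition used: TGI = concentration required for complete inhibition of growth.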

Key:
Experiment in all cases: NCI tumour cell line growth inhibition, 48 h
UACC-257 melanoma = tested on: UACC-257 melanoma
SK-MEL-2 melanoma = tested on: SK-MEL-2 melanoma
ACHN renal = tested on: ACHN renal
SK-MEL-28 melanoma = tested on: SK-MEL-28 melanoma
OVCAR-8 ovarian = tested on: OVCAR-8 ovarian
MDA-N = tested on: MDA-N
OVCAR-4 ovarian = tested on: OVCAR-4 ovarian
UO-31 renal = tested on: UO-31 renal
HOP-92 NSCLC = tested on: HOP-92 NSCLC
SF-295 CNS = tested on: SF-295 CNS
MDA-MB-435 = tested on: MDA-MB-435

Row | Compound | TGI (UACC-257 melanoma) | TGI (SK-MEL-2 melanoma) | TGI (ACHN renal) | TGI (SK-MEL-28 melanoma) | TGI (OVCAR-8 ovarian) | TGI (MDA-N) | TGI (OVCAR-4 ovarian) | TGI (UO-31 renal) | TGI (HOP-92 NSCLC) | TGI (SF-295 CNS) | TGI (MDA-MB-435)
1 | N#Cc1cnn2c1n[n+]([O-])c1ccc(Cl)cc12 | 23 µM | 17.2 µM | 10.5 µM | 27.7 µM | > 42.9 µM | 22.7 µM | 4.03 µM | 21.7 µM | 5.21 µM | 29.6 µM | 26.4 µM
2 | Fc1ccc(C(OCCN2CCC3CCC(C2)N3CCCc2ccccc2)c2ccc(F)cc2)cc1 (centres undefined) | 8.93 µM | 14 µM | 18.2 µM | 6.53 µM | 4.93 µM | 11.3 µM | 22.3 µM | 16.3 µM | 18.9 µM | 8.45 µM | 7.46 µM
3 | CN(CCO)CC(=O)CC(O)(C(F)(F)F)C(F)(F)F | > 100 µM | 95.3 µM | 99.4 µM | > 100 µM | > 100 µM | > 100 µM | > 100 µM | > 100 µM | 54.2 µM | > 100 µM | > 100 µM
4 | O=C1/C(=C/c2cccc([N+](=O)[O-])c2)CCCc2ccccc21 | 30.2 µM | 23 µM | 26.6 µM | 28.6 µM | 28.9 µM | 22.7 µM | 33.4 µM | 30 µM | 29.6 µM | 27.7 µM | 21.4 µM
5 | CCCCCCN(C(=O)Oc1ccccc1)C(C#N)c1ccccc1 (centres undefined) | > 100 µM | > 100 µM | > 100 µM | > 100 µM | > 100 µM | > 100 µM | > 100 µM | > 100 µM | > 100 µM | > 100 µM | > 100 µM
6 | Cc1c(-c2ccccc2)c(-c2ccc(OCCN(C)C)cc2)n2ccccc12 | 4.16 µM | 21.2 µM | 27.8 µM | 3.45 µM | 28.5 µM | 14.3 µM | 26.1 µM | 23.7 µM | 24.6 µM | 26.7 µM | 11.4 µM
7 | O=C(Cc1ccccc1)N/N=C(/CCN1CCCC1)CC(c1ccccc1)c1c(O)c2ccccc2oc1=O (centres undefined) | > 100 µM | > 100 µM | > 100 µM | > 100 µM | > 100 µM | > 100 µM | > 100 µM | > 100 µM | > 100 µM | – | > 100 µM
8 | Cc1sc2ncnc(NCCc3ccccc3)c2c1C | 17.3 µM | 31.2 µM | 69.2 µM | 35 µM | 38 µM | 23.8 µM | 59 µM | 38.8 µM | 15.5 µM | 36.9 µM | 34.6 µM
9 | COc1ccc(CSCc2cc(OC)c(OC)c(OC)c2)cc1 | > 31.6 µM | > 100 µM | > 100 µM | > 100 µM | > 31.6 µM | > 100 µM | > 100 µM | > 100 µM | > 86.6 µM | > 100 µM | > 81.3 µM
10 | CN(C)c1ccc(C2CC(=O)CC(c3ccc(N(C)C)cc3)C23C(=O)NC(=O)NC3=O)cc1 (centres undefined) | > 25 µM | > 25 µM | > 25 µM | > 25 µM | > 25 µM | > 25 µM | > 25 µM | > 25 µM | 19 µM | > 25 µM | > 25 µM
11 | CN1CC=C(OP(=O)(NCc2ccccc2)N(CCCl)CCCl)CC1 (centres undefined) | > 100 µM | > 100 µM | > 100 µM | > 100 µM | > 100 µM | > 100 µM | > 100 µM | > 100 µM | > 100 µM | > 100 µM | > 100 µM
12 | COc1ccc(/C=C/C(=O)NCC(NC(=O)/C=C/c2ccc(OC)c(OC)c2)C(=O)O)cc1OC (centres undefined) | > 100 µM | > 100 µM | > 100 µM | > 100 µM | > 100 µM | > 100 µM | > 100 µM | > 100 µM | 0.74 µM | > 100 µM | > 100 µM
13 | Cc1[nH]c2ncn(/N=C/c3ccccc3)c(=N)c2c1Cc1ccccc1 | > 100 µM | > 100 µM | > 100 µM | > 100 µM | > 100 µM | > 100 µM | > 100 µM | > 100 µM | > 100 µM | > 100 µM | > 100 µM
14 | CCOC(=O)CCc1c(C(=O)OCC)[nH]c(/C=C2/NC(=O)C(C)=C2CC)c1C | 25.3 µM | 40.9 µM | 60.9 µM | 30.2 µM | > 100 µM | 26.6 µM | 8.91 µM | 10.5 µM | 42.4 µM | 30.6 µM | 19.7 µM
15 | COc1cc(C2c3cccc4cccc(c34)C3CCC(=O)N32)cc(O)c1O (centres undefined) | > 50 µM | > 50 µM | > 50 µM | > 50 µM | > 50 µM | > 50 µM | 45 µM | > 50 µM | > 50 µM | > 50 µM | > 50 µM
16 | O=C(CNC(=O)OCc1ccccc1)NCCCCC(NC(=O)OCc1ccccc1)C(=O)O (centres undefined) | > 100 µM | > 100 µM | > 100 µM | > 100 µM | > 100 µM | > 100 µM | > 100 µM | > 100 µM | > 100 µM | > 100 µM | > 100 µM
17 | COc1ccc2oc(=N)c(C(N)=S)cc2c1 | 93.4 µM | 38.3 µM | 79.2 µM | > 100 µM | 38.9 µM | 67.5 µM | > 100 µM | 48.6 µM | 50.7 µM | > 100 µM | > 100 µM
18 | O=C1C(NCCc2cc(Br)c(O)c(Br)c2)=CC(=O)c2ncccc21 | 7.73 µM | 29.9 µM | 24.9 µM | 10 µM | 32.7 µM | 3.34 µM | 16.7 µM | 41.6 µM | 47.5 µM | 12.9 µM | 3.09 µM
19 | C[N+](C)(C)CC1Cc2ccccc2C1=O (centres undefined) | > 10 µM | > 10 µM | > 10 µM | > 10 µM | > 3.16 µM | > 10 µM | 8.07 µM | > 10 µM | > 10 µM | > 10 µM | > 10 µM
20 | CC(=O)c1c2c(cc3c1CC1(Cc4cc5c(cc4C1)CCC5)C3)CCC2 | > 100 µM | > 100 µM | > 100 µM | > 100 µM | > 100 µM | > 100 µM | > 100 µM | > 100 µM | > 100 µM | > 100 µM | > 100 µM
